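Following 48 hours of exposure in 96-well plates, responses at five concentrations were used to interpolate endpoints linearly. Abbreviation: GI50, concentration required for 50% inhibition of growth. TGI is the concentration that stops growth completely.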
Columns and labels:
Assay in all cases: inhibition of tumour cell growth, NCI panel, 48 h
786-0 renal = test system: 786-0 renal
MOLT-4 leukemia = test system: MOLT-4 leukemia
SF-268 CNS = test system: SF-268 CNS
OVCAR-5 ovarian = test system: OVCAR-5 ovarian
DU-145 prostate = test system: DU-145 prostate
A549 NSCLC = test system: A549 NSCLC
HOP-92 NSCLC = test system: HOP-92 NSCLC
UACC-62 melanoma = test system: UACC-62 melanoma
MDA-MB-231 breast = test system: MDA-MB-231 breast
RXF 393 renal = test system: RXF 393 renal
IGROV1 ovarian = test system: IGROV1 ovarian
MDA-MB-468 breast = test system: MDA-MB-468 breast
HS 578T breast = test system: HS 578T breast
MDA-MB-435 = test system: MDA-MB-435
UACC-257 melanoma = test system: UACC-257 melanoma
SNB-75 CNS = test system: SNB-75 CNS
OVCAR-8 ovarian = test system: OVCAR-8 ovarian
SN12C renal = test system: SN12C renal
BT-549 breast = test system: BT-549 breast
SK-OV-3 ovarian = test system: SK-OV-3 ovarian
OVCAR-3 ovarian = test system: OVCAR-3 ovarian
OVCAR-4 ovarian = test system: OVCAR-4 ovarian
RPMI-8226 leukemia = test system: RPMI-8226 leukemia
PC-3 prostate = test system: PC-3 prostate
EKVX NSCLC = test system: EKVX NSCLC
CCRF-CEM leukemia = test system: CCRF-CEM leukemia
SK-MEL-2 melanoma = test system: SK-MEL-2 melanoma
SNB-19 CNS = test system: SNB-19 CNS
SR leukemia = test system: SR leukemia
SK-MEL-5 melanoma = test system: SK-MEL-5 melanoma
SF-295 CNS = test system: SF-295 CNS
NCI-H460 lung = test system: NCI-H460 lung
COLO 205 colon = test system: COLO 205 colon
HCT-116 colon = test system: HCT-116 colon
CAKI-1 renal = test system: CAKI-1 renal
T-47D breast = test system: T-47D breast
HCT-15 colon = test system: HCT-15 colon
K-562 leukemia = test system: K-562 leukemia
HCC-2998 colon = test system: HCC-2998 colon
KM12 colon = test system: KM12 colon
MALME-3M melanoma = test system: MALME-3M melanoma
ACHN renal = test system: ACHN renal
SW-620 colon = test system: SW-620 colon
NCI-H23 lung = test system: NCI-H23 lung
HT29 colon = test system: HT29 colon
A498 renal = test system: A498 renal
M14 melanoma = test system: M14 melanoma
HOP-62 NSCLC = test system: HOP-62 NSCLC
SF-539 CNS = test system: SF-539 CNS
SK-MEL-28 melanoma = test system: SK-MEL-28 melanoma
TK-10 renal = test system: TK-10 renal
NCI/ADR-RES ovarian = test system: NCI/ADR-RES ovarian
MCF7 breast = test system: MCF7 breast
LOX IMVI melanoma = test system: LOX IMVI melanoma
HL-60(TB) leukemia = test system: HL-60(TB) leukemia
UO-31 renal = test system: UO-31 renal
NCI-H226 lung = test system: NCI-H226 lung
NCI-H522 lung = test system: NCI-H522 lung
U251 CNS = test system: U251 CNS

`O=C1NC(=NC23CC4CC(CC(C4)C2)C3)N/C1=C\c1ccc2ncccc2n1` was tested, and the GI50 (786-0 renal) was 371 nM, the TGI (786-0 renal) was 2350 nM and the GI50 (MOLT-4 leukemia) was 338 nM. It also gave a TGI (MOLT-4 leukemia) of 2020 nM, a GI50 (SF-268 CNS) of 608 nM and a TGI (SF-268 CNS) of 5.63 µM. The GI50 (OVCAR-5 ovarian) was 743 nM, the TGI (OVCAR-5 ovarian) was 5.43 µM and the GI50 (DU-145 prostate) was 462 nM. The TGI (DU-145 prostate) was 7.59 µM, the GI50 (A549 NSCLC) was 398 nM and the TGI (A549 NSCLC) was 5.12 µM. It also gave a GI50 (HOP-92 NSCLC) of 222 nM, a TGI (HOP-92 NSCLC) of 1760 nM and a GI50 (UACC-62 melanoma) of 226 nM. The TGI (UACC-62 melanoma) was 739 nM, the GI50 (MDA-MB-231 breast) was 557 nM and the TGI (MDA-MB-231 breast) was 4.82 µM. It also gave a GI50 (RXF 393 renal) of 239 nM, a TGI (RXF 393 renal) of 995 nM and a GI50 (IGROV1 ovarian) of 257 nM. The TGI (IGROV1 ovarian) was 1410 nM, the GI50 (MDA-MB-468 breast) was 201 nM and the TGI (MDA-MB-468 breast) was 781 nM. It also gave a GI50 (HS 578T breast) of 222 nM, a TGI (HS 578T breast) of 1230 nM and a GI50 (MDA-MB-435) of 537 nM. For the same compound, the TGI (MDA-MB-435) was 5.14 µM, the GI50 (UACC-257 melanoma) was 652 nM and the TGI (UACC-257 melanoma) was 5.82 µM. It also gave a GI50 (SNB-75 CNS) of 91.3 nM, a TGI (SNB-75 CNS) of 755 nM and a GI50 (OVCAR-8 ovarian) of 632 nM. It also gave a TGI (OVCAR-8 ovarian) of 5.73 µM, a GI50 (SN12C renal) of 350 nM and a TGI (SN12C renal) of 4.57 µM. It also gave a GI50 (BT-549 breast) of 163 nM, a TGI (BT-549 breast) of 687 nM and a GI50 (SK-OV-3 ovarian) of 245 nM. It also gave a TGI (SK-OV-3 ovarian) of 1400 nM, a GI50 (OVCAR-3 ovarian) of 279 nM and a TGI (OVCAR-3 ovarian) of 1590 nM. For the same compound, the GI50 (OVCAR-4 ovarian) was 451 nM, the TGI (OVCAR-4 ovarian) was 3.09 µM and the GI50 (RPMI-8226 leukemia) was 316 nM. The TGI (RPMI-8226 leukemia) was 1500 nM, the GI50 (PC-3 prostate) was 334 nM and the TGI (PC-3 prostate) was 6.23 µM. The GI50 (EKVX NSCLC) was 321 nM, the TGI (EKVX NSCLC) was 2810 nM and the GI50 (CCRF-CEM leukemia) was 299 nM. For the same compound, the TGI (CCRF-CEM leukemia) was 3.03 µM, the GI50 (SK-MEL-2 melanoma) was 202 nM and the TGI (SK-MEL-2 melanoma) was 545 nM. It also gave a GI50 (SNB-19 CNS) of 261 nM, a TGI (SNB-19 CNS) of 4.21 µM and a GI50 (SR leukemia) of 224 nM. For the same compound, the TGI (SR leukemia) was 779 nM, the GI50 (SK-MEL-5 melanoma) was 425 nM and the TGI (SK-MEL-5 melanoma) was 1850 nM. It also gave a GI50 (SF-295 CNS) of 251 nM, a TGI (SF-295 CNS) of 4.59 µM and a GI50 (NCI-H460 lung) of 510 nM. The TGI (NCI-H460 lung) was 5.28 µM, the GI50 (COLO 205 colon) was 319 nM and the TGI (COLO 205 colon) was 2940 nM. The GI50 (HCT-116 colon) was 250 nM, the TGI (HCT-116 colon) was 3.72 µM and the GI50 (CAKI-1 renal) was 234 nM. For the same compound, the TGI (CAKI-1 renal) was 1200 nM, the GI50 (T-47D breast) was 238 nM and the TGI (T-47D breast) was 5.38 µM. The GI50 (HCT-15 colon) was 389 nM, the TGI (HCT-15 colon) was 6.88 µM and the GI50 (K-562 leukemia) was 546 nM. The TGI (K-562 leukemia) was over 33.6 µM, the GI50 (HCC-2998 colon) was 491 nM and the TGI (HCC-2998 colon) was 4.45 µM. It also gave a GI50 (KM12 colon) of 683 nM, a TGI (KM12 colon) of 9.84 µM and a GI50 (MALME-3M melanoma) of 147 nM. It also gave a TGI (MALME-3M melanoma) of 897 nM, a GI50 (ACHN renal) of 305 nM and a TGI (ACHN renal) of 1900 nM. The GI50 (SW-620 colon) was 425 nM, the TGI (SW-620 colon) was 6.42 µM and the GI50 (NCI-H23 lung) was 283 nM. The TGI (NCI-H23 lung) was 1080 nM, the GI50 (HT29 colon) was 833 nM and the TGI (HT29 colon) was 3.68 µM. The GI50 (A498 renal) was 175 nM, the TGI (A498 renal) was 902 nM and the GI50 (M14 melanoma) was 352 nM. The TGI (M14 melanoma) was 2930 nM, the GI50 (HOP-62 NSCLC) was 514 nM and the TGI (HOP-62 NSCLC) was 4.54 µM. The GI50 (SF-539 CNS) was 128 nM, the TGI (SF-539 CNS) was 1110 nM and the GI50 (SK-MEL-28 melanoma) was 453 nM. For the same compound, the TGI (SK-MEL-28 melanoma) was 2910 nM, the GI50 (TK-10 renal) was 328 nM and the TGI (TK-10 renal) was 6.57 µM. It also gave a GI50 (NCI/ADR-RES ovarian) of 1820 nM, a TGI (NCI/ADR-RES ovarian) of 7 µM and a GI50 (MCF7 breast) of 367 nM. The TGI (MCF7 breast) was 5.84 µM, the GI50 (LOX IMVI melanoma) was 416 nM and the TGI (LOX IMVI melanoma) was 4.78 µM. The GI50 (HL-60(TB) leukemia) was 565 nM, the TGI (HL-60(TB) leukemia) was 3.67 µM and the GI50 (UO-31 renal) was 233 nM. The TGI (UO-31 renal) was 1970 nM, the GI50 (NCI-H226 lung) was 597 nM and the TGI (NCI-H226 lung) was 5.97 µM. The GI50 (NCI-H522 lung) was 194 nM, the TGI (NCI-H522 lung) was 1130 nM and the GI50 (U251 CNS) was 555 nM. For the same compound, the TGI (U251 CNS) was 11.3 µM.
